Patent publication US20220241409A1, “WATER SOLUBLE ADJUVANT AND COMPOSITION CONTAINING SAME” (Sumitomo Dainippon Pharma Co., Ltd., priority 2019, published 2022)

Assays:
[1] = test system: MCA-A24/Kb-WT1 tumor cells; assay: In vivo suppression of tumor growth by vaccine (Test 15); settings: 27th day after transplantation, HLA-A*24:02 transgenic mouse, vaccination 7 days before and after transplantation; versus vehicle (group a); group b p<0.05, group c (100 ng Example 2 per body) p<0.01
Protocol: The HLA-A*24:02 transgenic mouse (C57BL/6CrHLA-A24/Kb) used herein is a mouse expressing a chimeric HLA (HLA-A*2402/Kb) of a human MHC (HLA-A*24:02) and a mouse MHC (H-2Kb) (Int. J. Cancer 2002; 100: 565-570). The mouse can induce […] CTLs with a peptide which can bind to human HLA-A*24:02.
A suspension of 3-methylcholanthrene in corn oil was administered to a HLA-A*24:02 transgenic mouse intradermally at the ventral region. From the tumor generated at the administration site, HLA-A*2402/Kb-expressing tumor cells were obtained. Cell lines established by stably expressing WT1 antigen peptide (SEQ ID No. 2) in the cells (herein, also referred to as MCA-A24/Kb-WT1 tumor cells) were suspended in Hanks' Balanced Salt Solution and intradermally transplanted to the ventral region of HLA-A*24:02 transgenic mouse (5×10^5 cells per mouse). The mice made to receive a vehicle (Group a), a vaccine (Group b), or a vaccine containing the compound prepared in Example 2 (Group c) were classified. Six mice per group were used. […] The tumor size was measured 27 days after the tumor transplantation and the tumor volume was calculated.

[2] = test system: HLA-A*24:02 transgenic mouse; assay: In vivo adjuvant activity, CTL induction with vaccine f, IFNγ ELISPOT (Test 19); settings: 0.4 nmol per body added to vaccine f versus no compound; twice
Protocol: The in vivo adjuvant activity of the compound of Example 2 was evaluated in the following procedure. To a vaccine prepared by mixing Peptide SEQ ID No. 5 prepared in Reference example 19 with a preliminarily-emulsified composition (hereinafter, referred to as “vaccine f”) was added the compound prepared in Example 2 to prepare a vaccine. The vaccine was administered to a HLA-A*24:02 transgenic mouse, and the adjuvant activity of the vaccine was evaluated by the method of testing antigen-specific CTL induction. The CYTWNQMNL (SEQ ID No. 2) in Peptide SEQ ID No. 5 corresponds to an antigen peptide derived from an HLA-A*24:02-restricted WT1 protein.
The character for inducing CTLs specific to the antigen peptide (SEQ ID No. 2) by vaccine f was evaluated by measuring whether IFNγ can be produced upon stimulation of splenocytes from the mouse with the peptide. In addition, the character for exerting in vivo adjuvant activity by the compound in Example 2 was evaluated by comparing the number of CTLs induced by vaccine f and the number of CTLs induced by the vaccine prepared by adding the compound prepared in Example 2 to vaccine f, and checking presence or absence of the increase on the number.
Specifically, Peptide of SEQ ID No. 5 was dissolved in DMSO, and then diluted with water for injection to concentrations of 3 mg/mL. […]

In the case of CCCCOc1nc(N)c2[nH]c(=O)n(Cc3ccc(CN(C)CCOCCOCCOCCOCCO)nc3)c2n1 [Example 2, 6-amino-2-butoxy-9-{[6-(16-hydroxy-2-methyl-5,8,11,14-tetraoxa-2-azahexadecan-1-yl)pyridin-3-yl]methyl}-7,9-dihydro-8H-purin-8-one-trifluoroacetate], the “growth of tumor cells (average tumor volume)” value [1] is reported as “more potently suppressed” and the “CTL counts responsive to Peptide of SEQ ID No. 2” value [2] is reported as “more”.
